Results: patent publication US6406679B1, “Use of HL-60-related lectins in drug delivery and detection of lectin-expressing cells” (Incyte Pharmaceuticals, Inc., priority 1992, dated 2002)

Assays:
rat lymphocytes = test: Binding to sections of lymphoid organs (lymph nodes and Peyer's patch); assay type: cell-based; conditions: control level binding very low, result cannot be relied on
Description: Sections of lymphoid organs (lymph nodes and Peyer's patch) were tested as above.

Lewis rats = test: Rat heart transplantation, lectin combined with cyclosporin; assay type: in vivo; conditions: Group A: Cyclosporin 0, Lectin 2.5 mg/kg/day
Source text: The heart transplant model of paragraph A was used. Five groups of 5 Lewis rats received hearts from Brown Norway rats and were given the following drugs by group, as shown in Table 8:
Cyclosporin i.p. was started the day of the graft and continued daily. Recombinant lectin was started two days prior to transplant and continued daily.

rats = test: Skin allograft, single grafts (FIG. 14); assay type: in vivo, rat; conditions: 5 mg/kg recombinant lectin
Description: In this experiment, 5 mg/kg recombinant lectin was used on rats bearing single grafts and the day of graft rejection was noted.

With “Lectin: Soluble 14 kD β-galactoside-binding HL-60/placenta lectin of FIG. 1 (SEQ ID NO:2), prepared recombinantly in E. coli” the “Effect on binding of rat lymphocytes to lymphoid organ sections” value (rat lymphocytes) was “no noticeable effect”, the “Survivors on Day 16” value (Lewis rats) was 0/5 and the “rejection of the skin allograft” value (rats) was “considerably delayed”.
